Patent publication EP1541559A1, “5-SUBSTITUTED ISOQUINOLINE DERIVATIVE” (Asahi Kasei Pharma Corporation, priority 2002, dated 2004)
Like-named read-outs stand apart in the source and are kept apart here.

Legend:
[1] = tested on: myosin regulatory light chain; assay: Action on amount of phosphorylated myosin regulatory light chain in the cells (Test Example 1); format: cell-based, human; conditions: neutrophils of healthy volunteers, reaction with test compound at 25°C for 5 minutes, read-out: Inhibition of myosin regulatory light chain phosphorylation (IC50: µM)
Procedure: The neutrophils were washed with PBS(-) and resuspended in Hanks' Balanced Salt Solution (HBSS+, Gibco) to prepare a cell suspension (8 x 10^6/ml). The cell suspension was diluted to 5 x 10^6/ml, introduced into Eppendorf tubes in a volume of 0.4 ml each, then 0.1 ml each of solutions of a test compound at various concentrations were added to the suspension and allowed to react at 25°C for 5 minutes. After the reaction, 0.1 ml of trichloroacetic acid solution was added to each reaction, the reaction mixture was gently shaken and centrifuged at 12,000 rpm (4°C, 5 minutes), and the supernatant was removed. Subsequently, 3 μl of 1 M Tris solution was added to the residue, the mixture was further mixed with 50 μl of extraction buffer (8 M urea, 0.02% 2-mercaptoethanol, 0.002% bromophenol blue) and left stand at room temperature for 1 hour. Then, the reaction mixture was loaded on a spin column (0.45 μm, Millipore) to remove the insoluble solids and a sample buffer for SDS polyacrylamide gel electrophoresis (25 mM, Tris-HCl pH 6.8, 2.5% 2-mercaptoethanol, 2% sodium dodecylsulfate, 5% sucrose, 0.002% bromophenol blue as final concentrations) was added, and 10 μl of each sample was subjected to electrophoresis. […] J. Physiol., 274, […]-[…] (1998)), which specifically recognize the phosphorylated myosin regulatory light chain, and donkey anti-mouse IgG (Chemicon) conjugated with horseradish peroxidase (HRP-labeled). The band of the phosphorylated myosin regulatory light chain was detected on a film by using ECL Plus Kit (Amersham Pharmacia Biotech). This band was subjected to quantification using a densitometer. By using this value, the inhibitory ratio (%) for phosphorylation of the myosin regulatory light chain was calculated by using the following equation.

[2] = tested on: ovalbumin-immunized guinea pigs; assay: Respiratory tract constriction suppression action, ovalbumin-induced (Test Example 3); format: in vivo, Hartley guinea pigs; conditions: result in words; test medicament given into hind leg vein after induction with 0.3 mg/kg ovalbumin, measured for 15 minutes
Procedure: Four-week old Hartley guinea pigs (male) were immunized by intraperitoneal administration of ovalbumin (Sigma, Grade V) in amounts of 1 mg for each animal on the day on which the experiment was started, 3 mg for each animal after 2 days, and 10 mg for each animal after 4 days. Twelve to fourteen days after the final immunization, the ovalbumin-immunized guinea pigs were anesthetized by intraperitoneal administration of about 40 mg/kg of pentobarbital (Somnopentyl), and the tracheas were taken out. Subsequently, a cannula (SP-110, Natsume) was inserted into each trachea, and one end of the cannula was connected to an artificial respirator (Model-b83, Harvard). The aeration conditions were set at 6 ml per kilogram and 60 times per 1 minute. Further, a cannula for medicament administration (JMS wing needle 23G 3/4) was inserted into a hind leg vein. Myoblock (Organon Technica) was administered in an amount of 0.5 mg/kg from the cannula inserted into the hind leg vein to stop the spontaneous breathing, and after 2 or 3 minutes, 0.3 mg/kg of ovalbumin was administered to induce constriction of respiratory tract. The increase of airway resistance value 2 minutes after the induction (measurement apparatuses: pressure transducer TR-603T, respiratory amplifier AR-601G, and recorder RTA-3100, Nihon Kohden Corp.) was confirmed to be above 80 cm H2O or higher, and then, a solution of a test medicament was administered from the cannula inserted into the hind leg vein, and the airway resistance value was continuously measured for 15 minutes after the administration to determine the effect.

Japanese white rabbit = assay: Intraocular pressure reducing action (Test Example 4); format: in vivo; conditions: result in words
Procedure: A Japanese white rabbit having a body weight of about 2 kg was placed in a positioner and naturalized for one week before the experiment. An ophthalmologic local […] (Benoxil) was administered to the left eye, and then intraocular pressure was measured by using a tonometer (Classic 30, Solan). The initial value of the intraocular pressure was measured, then 50 μl of a test compound (1% aqueous solution) was dropped to the left eye, and after 2 hours, the intraocular pressure was measured. The intraocular pressure reducing action of the test compounds is shown in Table 7 mentioned below as ratios (%) of reduction of intraocular pressure based on the initial value of the intraocular pressure.

thoracic aorta = assay: Vasoconstriction inhibitory action on aorta rings constricted with phenylephrine (Test Example 2); parameters: species or system Rats (Wistar, 11-week old); conditions: aorta constricted with phenylephrine (1 µM); for vasoconstriction inhibitory action: result in words
Text: Rats (Wistar, 11-week old) were bleeded to death and laparotomized to take out the thoracic aorta.

[3] = tested on: human neutrophil fraction; assay: Action on increase of intracellular calcium concentration, Fura2-AM, fMLP (Test Example 7); format: cell-based; conditions: test compound 1 µM added 3 minutes before fMLP (1 µM), R = F340/F380, without test compound = 100%, read-out: Maximum R value (%)
Procedure: According to the method described in Test Example 1, a neutrophil containing fraction was prepared. Fura2-AM (Sigma) at a final concentration of 3 µM was added to the human neutrophil fraction and the mixture was incubated at 37°C for 1 hour. After centrifugation (250 g for 5 minutes), the supernatant was discarded, and the neutrophils were resuspended in Hanks' Balanced Salt Solution (HBSS, Gibco) to prepare a cell suspension (8 x 10^6/ml) for measurement of intracellular calcium concentration. The cell suspension for measurement of intracellular calcium concentration was left stand at room temperature for 30 minutes. Then, 490 µl of the cell suspension for measurement of intracellular calcium concentration was placed in a cuvette, 10 µl of calcium chloride solution at a final concentration of […] was added to it and the cuvette was set in an intracellular calcium concentration analyzer (CAF110, Nippon Bunko). fMLP (Sigma) solution at a final concentration of 1 µM was added to the cell suspension, and F340 and F380, which are fluorescence intensity at 340 nm and 380 nm, respectively, were measured to obtain an R value (F340/F380) as an index of the intracellular calcium concentration. A test compound (1 µM) was added 3 minutes before the addition of fMLP, and the action on the intracellular calcium concentration was observed. The ratios of the maximum R value obtained with addition of each test compound, based on the maximum R value obtained without addition of test compound and taken as 100%, are shown in Table 10 mentioned below.

Neutrophils = assay: Neutrophil migration inhibitory action, Boyden Chamber, FMLP (Test Example 5); format: cell-based, human; conditions: Homo sapiens, Neutrophil, 0.5 h, FMLP (1 µM), migration at 37°C for 30 minutes; read-out: Neutrophil migration inhibition IC50
Procedure: Neutrophils were isolated from 50 to 100 ml of peripheral blood collected from healthy donors by the method described in Test Example 1 to obtain a cell suspension (8 x 10^6/ml). Subsequently, solutions of a test compound at various concentrations were introduced into wells of a 96-well plate in a volume of 125 µl per well, the cell suspension of an equivalent volume was added to it and the plate was preincubated at room temperature for 5 minutes. During the preincubation, FMLP (1 µM, Sigma) solution was added to the lower chamber to set Boyden Chamber, the preincubated cell suspension was added to the upper chamber in a volume of 200 µl per well, and the cells were allowed to migrate at 37°C under 5% carbon dioxide for 30 minutes. The filter after the migration was collected, and the non-migrated cells adhered to the surface that faced the upper chamber were carefully wiped off. Then, the migrated cells on the back surface were stained with DifQuick dye solution (International Reagents), washed with water and dried, and then absorbance was measured at 595 nm. The inhibition ratio against migration (%) of a test compound was calculated by using the following equation: Migration inhibition ratio (%) = (1 -Absorbance of the group with addition of test compound /Absorbance of the group without addition of test compound) x 100 [formula]

[4] = Homo sapiens, Neutrophil, 5 min

Row | SMILES | IC50 [1, 4] | IC50 ([1]; hydrochloride) | constriction of respiratory tract (airway resistance value) [2] | intraocular pressure reducing activity (Japanese white rabbit) | vasoconstriction inhibitory action (thoracic aorta) | activity at 1 µM [3] | IC50 (Neutrophils) | inhibition at 1 µM (thoracic aorta; Rattus norvegicus, test compound 1 µM, read-out: Vasoconstriction inhibitory action (relaxation ratio) (%))
1 | Cl.N[C@H]1CC[C@H](Oc2cccc3cncc(Br)c23)CC1 [Example 133, Trans-4-[(4-bromo-5-isoquinolyl)oxy]cyclohexylamine hydrochloride] | ≤ 40 µM | ≤ 20 µM | significantly improved the constriction of respiratory tract | significant intraocular pressure reducing activity | – | – | – | –
2 | Cl.NCCCN(CCCc1ccccc1)S(=O)(=O)c1cccc2c(N)nccc12 [Example 8, N-[(1-Amino-5-isoquinolyl)sulfonyl]-N-(3-phenylpropyl)-1,3-propylenediamine hydrochloride] | 0.3 µM | – | – | – | significant vasoconstriction inhibitory action | 99% | ≤ 1 µM | –
3 | Cc1cncc2cccc(N[C@H]3CC[C@H](N)CC3)c12.Cl [Example 121, Trans-N-(4-methyl-5-isoquinolyl)-1,4-cyclohexanediamine hydrochloride] | ≤ 40 µM | ≤ 20 µM | significantly improved the constriction of respiratory tract | – | significant vasoconstriction inhibitory action | – | 1 to 10 µM | –
4 | Cl.Clc1cncc2cccc(NC3CCNCC3)c12 [Example 118, 4-(4-Chloro-5-isoquinolyl)aminopiperidine hydrochloride] | ≤ 40 µM | ≤ 20 µM | significantly improved the constriction of respiratory tract | – | – | – | – | –
5 | Cl.OCCN1CCC(Nc2cccc3cnccc23)CC1 [Example 144, 1-(2-Hydroxyethyl)-4-(5-isoquinolyl)aminopiperidine hydrochloride] | ≤ 40 µM | – | significantly improved the constriction of respiratory tract | significant intraocular pressure reducing activity | – | – | – | –
6 | Cc1cncc2cccc(O[C@H]3CC[C@H](N)CC3)c12.Cl [Example 140, Trans-4-[(4-methyl-5-isoquinolyl)oxy]cyclohexylamine hydrochloride] | ≤ 40 µM | ≤ 20 µM | significantly improved the constriction of respiratory tract | significant intraocular pressure reducing activity | significant vasoconstriction inhibitory action | – | – | –
7 | Cc1cncc2cccc(NC3CCN(CCO)CC3)c12.Cl [Example 146, 1-(2-Hydroxyethyl)-4-(4-methyl-5-isoquinolyl)aminopiperidine hydrochloride] | ≤ 40 µM | ≤ 20 µM | significantly improved the constriction of respiratory tract | significant intraocular pressure reducing activity | significant vasoconstriction inhibitory action | – | ≤ 40 µM | –
8 | Cl.c1cc(NC2CCNCC2)c2ccncc2c1 [Example 20, 4-(5-Isoquinolyl)aminopiperidine hydrochloride] | 1.8 µM | – | significantly improved the constriction of respiratory tract | – | – | 100% | 1 to 10 µM | 82.8%
9 | Cl.Nc1nccc2c(OCC3CCCNC3)cccc12 (stereo not drawn) [Example 11, 3-[(1-Amino-5-isoquinolyl)oxy]methylpiperidine hydrochloride] | 1 to 20 µM | – | significantly improved the constriction of respiratory tract | – | – | – | 1 to 10 µM | –
10 | Cc1cncc2cccc(S(=O)(=O)N(CCCN)CCCc3ccccc3)c12.Cl [Example 5, N-[(4-Methyl-5-isoquinolyl)sulfonyl]-N-(3-phenylpropyl)-1,3-propylenediamine hydrochloride] | 0.8 µM | – | – | – | significant vasoconstriction inhibitory action | 98% | ≤ 1 µM | –
